Laboratory results: US20210347823A1, “METHODS OF PHYSICOCHEMICAL-GUIDED PEPTIDE DESIGN AND NOVEL PEPTIDES DERIVED THEREFROM” (Massachusetts Institute of Technology, priority 2018, published 2021)
Where no end group is shown, it is not given here.

Tests used:
[1] = system: Gram-positive bacteria, Gram-negative bacteria and fungi (twelve different strains); experiment: Liquid growth inhibition MIC against larger panel of microorganisms (MIC average); type: cell-based; conditions: average of MIC over twelve different strains
Text: FIGS. 5A-5D. Antimicrobial activity of second-generation library of synthetic peptides. FIG. 5A. In vitro activity of Pol-CP—NH2 and second generation of analogs against Gram-positive bacteria (Micrococcus luteus, Staphylococcus aureus, Staphylococcus epidermidis and Bacillus megaterium), Funghi (Candida albicans and Candida tropicalis) and Gram-negative bacteria (Escherichia coli, Enterobacter cloacae and Serratia marcescens). Experiments performed in triplicates. FIG. 5B. MIC (μmol L^−1) average vs fH in TFE/Water solution. FIG. 5C. Graph correlating MIC (μmol L^−1) averages vs H and (FIG. 5D) MIC (μmol L^−1) averages vs μH, where dots above the dashed line represent peptides with lower activity and dots below the dashed line show peptides with higher activity compared to the wild-type, in which one can observe ranges of optimal activity in determined intervals of H and μH values.
Microorganisms. The following strains were used: Micrococcus luteus A270, Staphylococcus aureus ATCC29213, Staphylococcus epidermidis ATCC12228, Bacillus megaterium ATCC10778 Escherichia coli SBS 363, Enterobacter cloacae ®-12, Serratia marcescens ATCC4112, Candida albicans MDM8, Candida tropicalis IOC4560 from Instituto Butanta, Sao Paulo, Brazil, and Escherichia coli BL21, Pseudomonas aeruginosa PA14, Pseudomonas aeruginosa PA01 and Staphylococcus aureus ATCC12600 from Synthetic Biology Group at MIT.
MIC assays. The MIC assays were performed using the broth microdilution method (Wiegand I. et al., Protoc. 3, 163-175 (2008); de la Fuente-Núñez C. et al., Antimicrob. Agents Chemother. 56, 2696-2704 (2012)) in sterile 96-well polypropylene microtiter plates. Peptides were added to the plate as solutions in BM2 minimal medium in concentrations ranging from 0 to 128 ? mol L^−1, and the bacteria were inoculated at a final concentration of 5×10^5 CFU mL^−1 per well. The plates were incubated at 37° C. for 24 h. The MIC was defined as the lowest concentration of compound at which no growth was observed. Additional liquid growth inhibition assays were done in Peptone Broth (PB, 0.5% NaCl, 1% Peptone at pH 7.4) and Potato Dextrose Broth (Invitrogen) were used for antibacterial and antifungal assays, respectively. Briefly, bacteria or fungi were incubated with serial dilutions of polybia-CP and analogs (50-0.09 μmol L^−1) in a 96-well microplate at 37° C. The microbial growth was assessed by measurements in a model 354 Multiskan Ascent microplate reader at A595nm, after 18 and 24 h (bacteria and fungi, respectively) incubation on a model 347CD FANEM incubator. MIC was defined as the minimal inhibitory concentration that prevents 100% of the bacterial growth. All assays were done in triplicate.

[2] = system: human red blood cells; experiment: Hemolytic activity assay; type: cell-based; conditions: for HC50: concentration needed for 50% hemolysis, human RBC in PBS, room temperature, 1 h, 0.1-100 μmol L^−1
Experimental: (§1) FIGS. 6A-6B. Hemolysis and resistance to protease-mediated degradation of engineered peptides. FIG. 6A. Schematic of experimental design and hemolytic assay results of Pol-CP—NH2 and derivatives, where hemolytic activity was evaluated by incubating the peptides (0.1-100 μmol L^−1) with human red blood cells in PBS at room temperature for 1 h. Experiments were performed in triplicate, (*p<0.05). FIG. 6B. Resistance to degradation of Pol-CP—NH2 and analogs exposed to fetal bovine serum (FBS) proteases for 6 h. Experiments were done in triplicate.
Hemolytic Activity Assays. Human erythrocytes were collected and washed three times by centrifugation at 300×g with PBS (pH 7.4). After the last centrifugation, the cells were resuspended in PBS pH 7.4. Aliquots at a concentration of 0.1 to 100 ? mol L^−1 of the peptides were added to the 96-well microplate, where in each well containing 50 ? L of a suspension of erythrocytes to 0.4% in a phosphate saline buffer (10 mmol L^−1 Na2HPO4, 1.8 mmol L^−1 […], pH 7.4, 137 mmol L^−1 NaCl and 2.7 mmol L^−1KCl). After that, the samples were incubated at room temperature for 1 h. Hemolysis was determined by reading absorbance at 405 nm of each well in a bed of plates. 1% SDS in PBS solution was used as positive control (Shalel S. et al., J. Colloid Interface Sci. 252, 66-76 (2002); Love L. J. Cell. Comp. Physiol. 36, 133-148 (1950)) and as negative control was used PBS only. MHC was defined as the maximal non-hemolytic concentration.

[3] = Stability assay in fetal bovine serum; type: in vitro ADME; conditions: for resistance to protease-mediated degradation: fetal bovine serum, 6 h
Experimental: as §1
Stability Assays. The stability assay was performed with GIBCO fetal bovine serum diluted to 25% in water. 20 ? L of a 10 mg mL^−1 peptide solution was added to 1 mL 25% serum solution and kept at 37° C. The experiments were made in triplicate and 100 ? L aliquots were taken at 0, 0.5, 1, 2, 4 and 6 h. 10 ? L of TFA was added to the aliquots and the new solution was kept at 5° C. for 10 min, after that it was centrifuged at 14,000 rpm for 15 min, according to Powell et al. (Powell M. F. et al., Pharm. Res. 10, 1268-1273 (1993)). The reaction kinetics was followed by liquid chromatography and the percentage of remaining peptide was calculated by integrating the peptide peak area.

[4] = system: HEK293 human embryonic kidney cells; experiment: Cytotoxicity assay (MTS); type: cell-based; conditions: for Cytotoxicity: HEK293, 48 h, MTS, peptides 0-64 μmol L^−1
Experimental: FIGS. 7A-7B. Cytotoxicity of engineered peptides. FIG. 7A. Schematic of the experimental design for cytotoxicity assays of Pol-CP—NH2 and derivatives against HEK293 human embryonic kidney cells. Briefly, cells were cultured in DMEM medium supplemented with FBS and antibiotics at 37° C. and 5% CO2. FIG. 7B. Results obtained by seeding HEK293 50,000 cells and incubating with peptides' solution (0-64 μmol L^−1) at 37° C. for 48 h. Cell viability was measured by MTS assay. All experiments were performed in triplicate.
Cytotoxicity assays. Human embryonic kidney 293 (HEK 293) cells were cultured in Dulbecco's Modified Eagle Medium (DMEM) supplemented with 10% Fetal Bovine Serum (FBS) and 1% penicillin-streptomycin at 37° C. in 5% CO2. The day before treatment, 50,000 HEK 293 cells were seeded into each well in 96-well plates. The peptides were added at concentrations ranging from 0 to 64 ? mol L^−1 and 48 h after exposure, cell viability was measured by means of MTS (dimethylthiazol-carboxymethoxyphenyl-sulfophenyl-tetrazolium) assay. Experiments were performed in triplicate for each condition.

[5] = system: E. coli BL21, P. aeruginosa PA01 and PA14, and S. aureus ATCC12600; experiment: In vitro antimicrobial activity against first set of bacteria (Ala-scan analogs); type: cell-based; conditions: Gram-positive and Gram-negative bacteria
Text: FIGS. 2A-2E. Design, physicochemical features and activity of Pol-CP—NH2 and Ala-scan analogs. FIG. 2A. Theoretical physicochemical properties of interest of the wild type and Ala-scan analogs, where H denotes hydrophobicity, μH is the hydrophobic moment, q represents the net charge and P/N is the ratio of polar/non-polar residues in the sequence. Top to bottom, left to right the sequences correspond to SEQ ID NOs: 1-13. FIG. 2B. Schematic of the in vitro biological activity experimental design. Briefly, 10^4 bacterial cells and serially diluted peptides (0-128 μmol L^−1) were added to a 96-well plate and incubated at 37° C. One day after the exposure, the solution in each well was measured in a microplate reader (600 nm) to check inhibition of bacteria compared to the untreated controls and presented as heat maps of antimicrobial activities (μmol L^−1) against four bacteria strains: E. coli strain BL21, S. aureus strain ATCC12600 and P. aeruginosa strains PA01, and PA14. Assays were performed in triplicates. FIG. 2C. Graph correlating MIC (μmol L^−1) averages vs H and (FIG. 2D) MIC (μmol L^−1) averages vs μH, where dots […] the dashed line show peptides with higher activity compared to the wild type, in which one can observe ranges of optimal activity in determined intervals of H and μH values. FIG. 2E. […]

Row | Compound | MIC Average [1] [µM] | HC50 [2] [µmol/L] | Cytotoxicity [4] [µmol/L] | also measured
1 | CC[C@H](C)[C@H](N)C(=O)N[C@@H](CC(C)C)C(=O)NCC(=O)N[C@H](C(=O)N[C@H](C(=O)N[C@@H](CC(C)C)C(=O)NCC(=O)N[C@@H](CC(C)C)C(=O)N[C@@H](CC(C)C)C(=O)N[C@@H](CCCCN)C(=O)N[C@@H](CO)C(N)=O)[C@@H](C)CC)[C@@H](C)O [Peptide 18] | >50.0 | >100.0 | – | –
2 | GLGTILGLLKSL-NH2 [Peptide 20, GLGTILGLLKSL-NH2] | 16.7 | >100.0 | >64.0 | resistance to protease-mediated degradation [3]: degraded in a few minutes
3 | ILATILGLLKSL-NH2 [Peptide 3, ILATILGLLKSL-NH2] | – | – | >64.0 | –
4 | ILGKILGLLKSL-NH2 [Peptide 15, ILGKILGLLKSL-NH2] | 3.3 | >100.0 | 32.0 | remaining at 6 h, 0.196 mg/mL ([3]; fetal bovine serum diluted to 25% in water, after six hours of exposure to fetal bovine serum, read-out: remaining peptide (% of initial concentration added)): ~50%; resistance to protease-mediated degradation [3]: increased resistance to protease-mediated degradation; cytotoxic concentration relative to MIC against P. aeruginosa ([4]; HEK293 cytotoxicity vs MIC): two- to four-fold higher
5 | ILGTALGLLKSL-NH2 [Peptide 5, ILGTALGLLKSL-NH2] | – | – | >64.0 | –
6 | ILGTIAGLLKSL-NH2 [Peptide 6] | – | – | – | antimicrobial activity compared with wild type [5]: preserved the antimicrobial activity
7 | ILGTILALLKSL-NH2 [Peptide 7, ILGTILALLKSL-NH2] | – | – | 32.0 | –
8 | ILGTILGLFKSL-NH2 [Peptide 17, ILGTILGLFKSL-NH2] | 20.0 | 50.0 | – | hemolytic activity (concentration at which hemolytic) ([2]; human red blood cells, range evaluated 0-100 μmol L^−1, listed as [Phe]^9-Pol-CP—NH2): ~50 µmol/L; hemolytic activity ([2]; range of concentrations evaluated 0-100 μmol L^−1): hemolytic
9 | ILGTILGLLKAL-NH2 [Peptide 11, ILGTILGLLKAL-NH2] | – | – | 64.0 | –
10 | ILGTKLGLLKSL-NH2 [Peptide 14, ILGTKLGLLKSL-NH2] | >50.0 | >100.0 | – | –
11 | ILGTLLGLKKSL-NH2 [Peptide 13, ILGTLLGLKKSL-NH2] | >50.0 | >100.0 | – | –
